Measurements from patent publication US12121530B2, “Composition and methods for treating articulating joint disorders with nucleoside reverse transcriptase inhibitors” (RHODE ISLAND HOSPITAL, priority 2018, dated 2024).

Tests used:
[1] = tested on: HIV patients; test: summary data of NRTI on OA in HIV patients; type: in vivo, human; conditions: for strict OA (ICD-9-CM 715) / expanded OA (ICD-9-CM 715, 716 or 719): HIV patients; for strict OA (ICD-9-CM 715): older than 50, dosage dependent, both male and female
Description: Medical provider diagnoses of ICD-9-CM 715 [osteoarthrosis and allied disorders] include the following definitions: 1) strict=ICD-9-CM 715; 2) expanded=ICD-9-CM 715, 716 [other and unspecified arthropathies], OR 719 [other and unspecified disorders of joint]); and 3) probable=strict OR expanded+respondent-reported prior diagnosis of OA or other arthritis excluding rheumatoid arthritis (RA).

[2] = tested on: Line-1; test: siRNA against Line-1 in mouse primary chondrocytes, RT-qPCR; type: cell-based; conditions: for Line-1 expression: siRNA screening, versus scramble siRNA
Procedure: Cells were seeded onto desired size plates to reach 70-90% confluence and transfected with miR-365 mimic or miRNA mimic negative control or miR-365 inhibitor or inhibitor negative control (Dharmacon®, Lafayette, Colo., USA). Lipofectamine 3000 (Invitrogen®, Waltham, Mass., USA) was used as transfection reagents. Medium is changed 24 hrs after transfection. 48 hrs post transfection, cells were lysated in either QIAzol for RNA purification and real-time PCR analysis or ice-cold lysis buffer containing protease inhibitor and phosphatase inhibitor for western blot analysis. MiR-365 mimic, miRNA mimic negative control, miR-365 inhibitor and inhibitor negative control were typically used at a final concentration of 25 nM unless otherwise stated.
Both miRNA and mRNA were extracted using miRNeasy Mini Kit (Qiagen®, Germantown, Md., USA) and reversely transcribed using miScriptIIRT Kit (Qiagen®, Germantown, Md., USA) according to manufacturer's instruction. qPCR was performed using SYBR Green PCR master mix (Qiagen®, Germantown, Md., USA) on a Bio-Rad CFX96 real-time PCR detection system (Bio-Rad®, Hercules, Calif., USA). Amplification conditions are as follows: 95° C. for 10 min, 40 cycles of 95° C. for 10″, 55° C. for 30″, and 72° C. for 30″. 18S ribosomal or GAPDH RNA was used as an internal control gene to normalize the mRNAs level. The ubiquitously expressed snRNA U6 was used as an endogenous control for miRNAs level. Primers were synthesized by Integrated DNA Technologies (http://www.idtdna.com). The primers for miR-365 were purchased from Qiagen. Fold changes of mRNA and miRNAs were calculated by the 2^^(ΔΔCt) method and normalized to 18S/GAPDH or U6 snRNA, respectively.

[3] = mouse PC transfected with miR-365 mimic

Molecule | strict OA (ICD-9-CM 715) [1] | expanded OA (ICD-9-CM 715, 716 or 719) [1] | Line-1 expression [2] | further results
Nc1nc(NC2CC2)c2ncn([C@H]3C=C[C@@H](CO)C3)c2n1 [ABC, abacavir] | inhibiting |  |  | 
Cc1cn([C@H]2C=C[C@@H](CO)O2)c(=O)[nH]c1=O [D4T, 2′,3′-didehydro-2′,3′-dideoxythymidine] | inhibiting | inhibiting |  | extent of inhibition of strict OA and expanded OA ([1]; among NRTIs): highest extent of inhibition
O=c1nc[nH]c2c1ncn2[C@H]1CC[C@@H](CO)O1 [DDL, 2′,3′-dideoxyinosine] | inhibiting | inhibiting |  | toxicity ([1]; group of less than 40 years old): No toxicity
Cc1cn([C@H]2C[C@H](N=[N+]=[N-])[C@@H](CO)O2)c(=O)[nH]c1=O [ZDV, Zidovudine] | inhibiting | partially inhibiting |  | 
siLine-1C: siRNA against Line-1, AAGCCACTATTACTCTGATAC (SEQ ID NO: 95) (AAGCCACTATTACTCTGATAC; listed as DNA, chemistry not given here) |  |  | significantly suppressed | 
siLine-1D: siRNA against Line-1, AAGGTCAAATCTAAGTGGATC (SEQ ID NO: 96) (AAGGTCAAATCTAAGTGGATC; listed as DNA, chemistry not given here) |  |  | significantly suppressed | miR-365-elicited gene expression changes (L1, Adamts5, Mmp3, Ihh, Col2a1, Acan) ([2]; co-transfected with miR-365 (FIG. 1D-1I)): abolished; miR-365 led induction of Ihh [2, 3]: successfully rescued; miR-365 led induction of Line-1 [2, 3]: successfully rescued
siLine-1E: siRNA against Line-1, AAGTTTCTGCAAGGCAAAAGA (SEQ ID NO: 97) (AAGTTTCTGCAAGGCAAAAGA; listed as DNA, chemistry not given here) |  |  | significantly suppressed | 
